Test results: ChEMBL document CHEMBL5096165, “Histone deacetylase 2: A potential therapeutic target for cancer and neurodegenerative disorders” (Eur J Med Chem, 2021)

How the values were obtained:
Histone deacetylase 9 = Histone deacetylase 9 (Homo sapiens, UniProt Q9UKV0)
Description: Inhibition of HDAC9 (unknown origin)

[1] = target: T1, Polyamine deacetylase HDAC10 (Homo sapiens, UniProt Q969S8)
T1 sequence (Q969S8 whole entry): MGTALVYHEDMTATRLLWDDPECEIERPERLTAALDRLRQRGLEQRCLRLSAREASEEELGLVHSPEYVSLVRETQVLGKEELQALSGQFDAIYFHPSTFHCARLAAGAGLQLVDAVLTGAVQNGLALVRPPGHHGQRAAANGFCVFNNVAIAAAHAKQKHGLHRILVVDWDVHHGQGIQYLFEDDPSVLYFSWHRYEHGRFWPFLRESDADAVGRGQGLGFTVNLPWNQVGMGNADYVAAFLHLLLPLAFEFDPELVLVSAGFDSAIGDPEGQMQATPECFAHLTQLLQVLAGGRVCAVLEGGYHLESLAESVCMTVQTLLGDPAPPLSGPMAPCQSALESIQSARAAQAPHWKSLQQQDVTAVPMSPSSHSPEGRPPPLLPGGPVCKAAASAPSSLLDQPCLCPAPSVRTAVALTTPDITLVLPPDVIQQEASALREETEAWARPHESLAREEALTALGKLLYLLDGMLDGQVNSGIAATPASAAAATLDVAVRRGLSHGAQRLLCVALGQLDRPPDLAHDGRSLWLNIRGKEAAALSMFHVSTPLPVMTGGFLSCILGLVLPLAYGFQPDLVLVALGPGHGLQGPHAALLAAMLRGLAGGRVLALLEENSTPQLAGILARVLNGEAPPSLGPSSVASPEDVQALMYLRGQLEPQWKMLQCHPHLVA
Description: Inhibition of HDAC10 (unknown origin)

Histone deacetylase 5 = Histone deacetylase 5 (Homo sapiens, UniProt Q9UQL6)
Sequence of Histone deacetylase 5 (Q9UQL6 whole entry): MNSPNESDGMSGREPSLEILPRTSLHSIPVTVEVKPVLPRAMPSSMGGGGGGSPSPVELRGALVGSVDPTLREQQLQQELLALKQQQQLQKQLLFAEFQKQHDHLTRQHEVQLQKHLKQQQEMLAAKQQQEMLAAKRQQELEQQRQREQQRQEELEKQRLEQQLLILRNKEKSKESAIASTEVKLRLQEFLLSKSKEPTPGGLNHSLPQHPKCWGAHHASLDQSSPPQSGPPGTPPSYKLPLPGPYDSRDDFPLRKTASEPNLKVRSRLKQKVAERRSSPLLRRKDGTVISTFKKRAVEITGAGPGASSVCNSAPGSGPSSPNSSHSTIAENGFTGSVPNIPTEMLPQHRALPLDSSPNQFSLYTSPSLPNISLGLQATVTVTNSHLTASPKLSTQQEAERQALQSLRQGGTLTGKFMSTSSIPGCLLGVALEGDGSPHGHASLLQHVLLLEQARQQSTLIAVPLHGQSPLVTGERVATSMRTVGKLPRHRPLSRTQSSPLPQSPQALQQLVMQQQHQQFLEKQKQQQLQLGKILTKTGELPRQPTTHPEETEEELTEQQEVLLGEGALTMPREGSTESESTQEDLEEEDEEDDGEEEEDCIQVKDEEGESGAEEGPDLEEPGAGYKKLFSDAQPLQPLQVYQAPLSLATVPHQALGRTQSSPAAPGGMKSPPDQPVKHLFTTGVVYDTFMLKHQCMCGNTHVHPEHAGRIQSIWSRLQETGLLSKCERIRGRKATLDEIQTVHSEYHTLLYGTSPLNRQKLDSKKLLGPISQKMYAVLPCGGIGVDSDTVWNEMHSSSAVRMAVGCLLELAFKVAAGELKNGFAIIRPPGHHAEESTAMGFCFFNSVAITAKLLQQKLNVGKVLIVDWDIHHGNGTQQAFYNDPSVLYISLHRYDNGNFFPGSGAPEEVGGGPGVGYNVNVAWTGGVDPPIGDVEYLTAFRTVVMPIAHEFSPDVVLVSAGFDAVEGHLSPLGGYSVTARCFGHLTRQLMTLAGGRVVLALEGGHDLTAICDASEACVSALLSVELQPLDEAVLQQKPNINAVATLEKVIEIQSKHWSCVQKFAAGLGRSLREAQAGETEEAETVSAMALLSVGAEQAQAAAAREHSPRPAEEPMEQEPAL
Description: Inhibition of HDAC5 (unknown origin)

Sequence of Histone deacetylase 9 (Q9UKV0 whole entry): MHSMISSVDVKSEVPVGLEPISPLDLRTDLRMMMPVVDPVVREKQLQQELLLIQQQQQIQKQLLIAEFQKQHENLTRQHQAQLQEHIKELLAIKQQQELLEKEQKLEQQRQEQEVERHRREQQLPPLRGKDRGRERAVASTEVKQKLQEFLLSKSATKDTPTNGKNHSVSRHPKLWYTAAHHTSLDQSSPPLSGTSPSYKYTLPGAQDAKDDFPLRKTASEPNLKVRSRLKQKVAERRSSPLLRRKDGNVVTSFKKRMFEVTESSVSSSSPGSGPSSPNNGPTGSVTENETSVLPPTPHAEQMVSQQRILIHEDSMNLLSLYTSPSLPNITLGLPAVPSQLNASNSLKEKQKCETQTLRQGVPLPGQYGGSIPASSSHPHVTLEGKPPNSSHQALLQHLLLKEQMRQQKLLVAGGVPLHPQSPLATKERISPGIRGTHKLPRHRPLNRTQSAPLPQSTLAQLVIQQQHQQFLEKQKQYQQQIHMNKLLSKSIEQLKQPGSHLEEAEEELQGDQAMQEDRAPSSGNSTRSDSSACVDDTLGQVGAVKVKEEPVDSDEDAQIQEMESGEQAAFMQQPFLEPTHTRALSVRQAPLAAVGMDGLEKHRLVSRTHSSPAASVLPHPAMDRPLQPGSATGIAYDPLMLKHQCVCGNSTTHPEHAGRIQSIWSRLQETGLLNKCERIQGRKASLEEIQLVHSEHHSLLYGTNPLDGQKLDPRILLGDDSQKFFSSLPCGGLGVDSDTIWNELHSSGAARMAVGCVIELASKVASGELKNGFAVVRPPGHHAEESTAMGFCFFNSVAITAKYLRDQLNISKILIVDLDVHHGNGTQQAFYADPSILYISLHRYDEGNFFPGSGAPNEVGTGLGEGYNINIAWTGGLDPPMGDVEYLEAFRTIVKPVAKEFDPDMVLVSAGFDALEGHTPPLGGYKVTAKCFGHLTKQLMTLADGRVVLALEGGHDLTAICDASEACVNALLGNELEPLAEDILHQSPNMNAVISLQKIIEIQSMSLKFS

| IC50 (Histone deacetylase 9) | SMILES | IC50 [1] | IC50 (Histone deacetylase 5) |
| --- | --- | --- | --- |
| 50 µM | Cn1cc(-c2ccc(S(=O)(=O)n3ccc(/C=C/C(=O)Nc4ccccc4N)c3)cc2)cn1 [DOMATINOSTAT] | 21 µM | – |
| – | Cn1cc(CNCC2CCN(c3ncc(C(=O)NO)cn3)CC2)c2ccccc21 [QUISINOSTAT] | 0.00046 µM | 0.00369 µM |
